Laboratory results reported in patent US20030092686A1, “Method of determining the initial dose of vitamin D compounds” (priority 2000, published 2003).

Test system: adult ESRD patients
Assay: Double-blind, randomized, 12-week trial of starting dose of paricalcitol injection (baseline PTH/80 vs 0.04 mcg/kg)
Assay type: in vivo, human
Conditions: for Incidences of Ca × P > 75: 2 consecutive occurrences of CaxP>75; for Median Number of Dose Adjustments: adjustments to achieve the first of 4 consecutive ≧30% decreases from baseline PTH; for Incidence(s) of Hypercalcemia: single episode, Ca>11.5 miligram/deciliter, 3x weekly, 12-week trial; for Median Days to First of 4 ≧ 30% PTH Decreases: statistically significant (P = 0.0306)
Experimental: A double-blind, randomized, 12-week trial was conducted in 125 adult ESRD patients to determine if a starting dose of paricalcitol injection using baseline PTH/80 was equivalent in the rate of hypercalcemia (single episode, Ca>11.5 miligram/deciliter) compared to the approved initial dose (0.04 mcg/kg, dry weight). Patients were randomized (1:1) to doses by either PTH/80 or 0.04 mcg/kg. Baseline demographics and laboratory values were similar between groups. Dosing occurred 3×weekly per patient hemodialysis schedule. Dose increases of 2 mcg could occur once per 2 weeks; decreases of 2 mcg could occur once per week. Patients completed the study by reducing PTH≧30% from baseline for 4 consecutive weekly measurements, or by having a single incidence of hypercalcemia, or by completing 12 weeks of treatment. The primary analysis was a comparison of the incidence of hypercalcemia between groups. Secondary analyses included the time in days to the first of 4 consecutive≧30% decreases from baseline PTH levels, the difference in the number of dose adjustments to achieve the first of 4 consecutive≧30% decreases from baseline PTH levels, and the difference in the incidence rates of 2 consecutive occurrences of CaxP>75.

[1] = initial dose 0.04 mcg/kg dry weight

Structure (SMILES): C[C@H](/C=C/[C@H](C)C(C)(C)O)[C@H]1CC[C@H]2/C(=C/C=C3C[C@@H](O)C[C@H](O)C3)CCC[C@]12C [paricalcitol injection, Paricalcitol]
- Mean PTH Decrease (SE) [1]: −193 (24.59) pg/mL
- Incidences of Ca × P > 75 [1]: 2
- Median Number of Dose Adjustments [1]: 3
- Incidence(s) of Hypercalcemia [1]: 0
- Median Days to First of 4 ≧ 30% PTH Decreases [1]: 45 days
- Mean PTH Decrease (SE) (initial dose baseline PTH/80): −259 (24.01) pg/mL
- Incidences of Ca × P > 75 (initial dose baseline PTH/80): 5
- Median Number of Dose Adjustments (initial dose baseline PTH/80): 2
- Incidence(s) of Hypercalcemia (initial dose baseline PTH/80): 0
- Median Days to First of 4 ≧ 30% PTH Decreases (initial dose baseline PTH/80): 31 days
